In PubChem BioAssay AID179 (DTP/NCI, 2004):
Activity calls are given as the source filed them.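 How the source made its calls: active means compounds giving half or more protection of infected cells from virus-caused growth loss, again on retest; inactive means the rest.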

Tested on: CEM cells HIV-1 protection, formazan growth assay
Assay: NCI AIDS Antiviral Assay
Settings: for IC50: measured here: growth of uninfected CEM cells
How it was run: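 Category rules: moderately active means at least 50% protection on retest, and confirmed active means 100% protection reproducibly. The underlying data came from a formazan growth assay in HIV-1-infected CEM cells.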

SMILES	EC50 [µM]	IC50 [µM]	outcome
CC(C)=CC(=O)C1c2cccc(O)c2C(=O)c2c(O)cc(C)cc21 (configuration not stated)	> 30.9	10.2	–
CCCCCCCCCCCCCC(=O)OCC1OC(n2cc(C)c(=O)[nH]c2=O)CC1O (configuration not stated)	> 200	11.7	–
NC(C/C=C/P(=O)(O)O)C(=O)O (configuration not stated)	> 200	155	–
O=C1C2CCC(N1c1ccc(F)cc1)n1c(=O)n(-c3ccccc3)c(=O)n12 (configuration not stated)	–	–	inactive
COc1cccc(N(CN2CC=CC2=O)C(C)=O)c1	–	–	inactive
C/C(=N\Nc1ncnc2ccccc12)c1ccccn1	> 0.2	0.0257	–
COc1ccccc1C1C2=C(COC2=O)Oc2cc3c(cc21)OCO3 (configuration not stated)	> 200	2.19	–
O=c1c2cccc3c4ccccc4c4sc5ccccc5n1-c4c23	> 11.5	> 11.5	–
COC(=O)C(C(=O)C(=O)Nc1ccc(C(F)(F)F)cc1[N+](=O)[O-])c1csc(-n2nc(-c3ccccc3)cc2-c2ccccc2)n1 (configuration not stated)	> 53.7	39.8	–
O=S(=O)(O)SC/C=C\CSS(=O)(=O)O	–	–	inactive
O=C1C[C@@]23CCC4(CC2=CCC[C@H]3O1)OCCO4	–	–	inactive
NCCNC(=O)CCC(CN(CC(=O)O)CC(=O)O)N(CC(=O)O)CC(=O)O (configuration not stated)	> 63.1	> 63.1	–
NC(N)=NS(=O)(=O)c1ccc(Nc2c3ccccc3nc3ccc(C(=O)Nc4ccc(S(N)(=O)=O)cc4)cc23)cc1	> 200	> 200	–
CC1(C)CC2C=C(C=O)C3(C=O)CC3(C)C2C1 (configuration not stated)	> 3.47	0.501	–
CNC(=O)NCNC(=O)NC	> 562	> 562	–
O=C1N[C@@H](Cc2ccccc2)C(=O)N2CCCC[C@H]12	–	–	inactive
Cn1cc(C(=O)C[n+]2ccccc2)c2ccccc21	> 224	81.3	–
O=C(O)CCSC(=O)Nc1ccccc1F	–	–	inactive
CC12C=NNC1(C)C(=O)C1(C)CN=NC1(C)C2=O (configuration not stated)	> 200	> 200	–
CCCc1cc(=O)oc2c3c(c4c(c12)OC(C)(C)C=C4)O[C@H](C)[C@@H](C)[C@H]3O	> 58.9	17.8	–
COC(=O)C1SC[C@H]2C(=O)N(c3ccccc3)C(=O)N12 (some centres not stated)	> 200	> 200	–
O=[N+]([O-])c1ccc2nc(/C=C(\O)c3ccccc3)c(/C=C(\O)c3ccc(Cl)cc3)nc2c1	> 100	11	–

SMILES	EC50 [µM]	IC50 [µM]	outcome
Cc1csc(-n2nc(C)cc2C)n1	> 200	> 200	–
O=C1[C@@H]2[C@@H](c3ccccc3)[C@]2(Cl)C(=O)[C@H]2[C@H](c3ccccc3)[C@@]12Cl	–	–	inactive
C[S+](C)CCS(=O)(=O)[O-]	> 200	> 200	–
Cc1ccc2c(c1)C(=C(C#N)C#N)CCCS2(=O)=O	> 200	> 200	–
Cn1nc2ccc3nccc(NCCNCCCl)c3c2n1	> 1.17	> 1.17	–
O=c1c(F)cn2c(=O)n1CCCCCCCn1c(=O)c(F)cn(c1=O)CCCCCCC2	> 200	155	–
COc1ccc(CCN(C)CCCC2(C#N)c3ccccc3-c3ccccc32)cc1OC	> 60.3	47.9	–
CC1N(O)C(c2ccccc2)C(c2ccccc2)=[N+]1[O-] (configuration not stated)	> 200	> 200	–
COC(=O)/C(C#N)=C\NC(=S)NNC(C)=O	> 200	> 200	–
N/N=C1/CCN2CCCc3cccc1c32	> 200	182	–
O=CNc1ccc(S(=O)(=O)c2ccc(NC=O)cc2)cc1	–	–	inactive
O=C(O)c1ccc(NC(=O)C2C(=O)C(=O)N(c3ccc(C(=O)O)cc3)C2=O)cc1 (configuration not stated)	> 47.9	> 47.9	–
CCCSP(SCCC)SCCC	–	–	inactive
COC1C(C)OC(OC2CC(C)(O)C(C(=O)O)c3cc4c(c(O)c32)C(=O)c2c(O)cc3c(c2C4=O)OC2OC3(C)C(O)C(N(C)C)C2O)C(OC)C1(C)OC (configuration not stated)	–	–	inactive
COC(=O)C1Cc2c(n(C)c3ccccc23)C(c2ccccc2)N1 (configuration not stated)	–	–	inactive
O=[N+]([O-])c1ccc(NC(=S)N/N=C(\c2ccccc2)c2ccccn2)cc1	> 2	> 2	–
Cc1n(Cc2ccccc2)nc2sc(N)n[n+]12	> 200	64.6	–
COC(=O)C1=C(O)C(C(=O)OC)C2(C3CC=CC3)C(C(=O)OC)=C(O)C(C(=O)OC)C12 (configuration not stated)	> 214	> 214	–
Cc1nnc2sc3c(Cl)c4nn5c(C)nnc5sc4c(Cl)c3nn12	> 200	2.95	–
COc1cc(/C=C2/SC(c3ccccc3)N(c3ccccc3)C2=O)cc(OC)c1OC (configuration not stated)	> 20	4.47	–
O=[N+]([O-])c1ccc(C2=Nn3c(nnc3-c3ccc(Cl)cc3)SC2)o1	–	–	inactive
CC(=O)OCC1OC(OC(C)=O)C(NC(=O)CI)C(OC(C)=O)C1OC(C)=O (configuration not stated)	> 490	2.57	–

SMILES	EC50 [µM]	IC50 [µM]	outcome
CCP(CC)(c1ccccc1)=c1c(=O)c(Cl)c(Cl)c(=O)c1=O	> 200	27.5	–
C=CCCCCC1CCC2CCC(CCCCC=C)N12 (configuration not stated)	> 95.5	79.4	–
CC(=O)CC(C)=O.CC(=O)CC(C)=O.CC(=O)CC(C)=O.[Mn]	> 200	25.7	–
O=C(O)c1cc2c(cc1CC(Cc1ccc3c(c1)CCC3)C(=O)O)CCC2 (configuration not stated)	> 200	105	–
O=c1nc(/C=C/c2ccccc2Cl)cc2n1CCN2CCO	–	–	inactive
Cc1c(N=Nc2cc(N=Nc3ccc(N=Nc4ccc(O)c(C(=O)O)c4)cc3)c(N)cc2N)cccc1S(=O)(=O)O	25.7	> 100	–
COc1ccc(CN2CC(=O)N3Cc4ccccc4CN3C(=O)C2)cc1	> 200	166	–
CN(C(=S)Nc1ccccc1)c1cc(N2CCCC2)ccn1	> 200	29.5	–
N.N.NC(CS)C(=O)[O-].NC(CS)C(=O)[O-].[Pt+4] (configuration not stated)	> 3310	> 3310	–
C/C(=N/O)C1CC(C)([N+](=O)[O-])CCC1(C)O (configuration not stated)	> 200	> 200	–
CCCOC(=O)C(F)C(Br)C(=O)OCCC (configuration not stated)	> 200	3.16	–
Nc1nnnn1NC(=O)NCCCl	> 200	> 200	–
CCOC(=O)c1cccc2c(Nc3ccc(S(=O)(=O)Nc4cc(C)on4)cc3)c3ccccc3nc12	> 200	25.1	–
CC(=O)Nc1ccc(/C=N/NC(=S)NC2CN3CCC2CC3)cc1 (configuration not stated)	> 200	> 200	–
CC(=O)NNc1nc(C)c(C(=O)/C=C/C=C/c2ccccc2)s1	> 21.9	> 21.9	–
CC(C)N(CCn1c2c3ccccc3ccc2c2oc(=O)c3ccccc3c21)C(C)C	> 22.4	> 22.4	–
C/C(=N/N)c1sc(-c2nc(C)c(/C(C)=N\N)s2)nc1C	> 61.7	> 61.7	–
COc1ccccc1N/N=c1\c2nc3ccccc3nc1n(-c1ccccc1C)c(=S)n2-c1ccccn1	> 200	> 100	–
Cc1cc(C)nc(NS(=O)(=O)c2ccc(NNc3c4ccccc4nc4c(C(=O)Nc5ccc(S(N)(=O)=O)cc5)cccc34)cc2)n1	> 200	11	–
Cc1nc2c(O)c3c(c(O)c2nc1C)C1C=CC3CC1	> 200	1.95	–
N#CCCN(C1=NN(C(=O)CC(=O)Nc2ccc(Cl)cc2)C(c2ccccc2)C1)c1ccc(Cl)cc1 (configuration not stated)	> 50.1	> 50.1	–
